Reference: US20240390452A1, “Protective Agent Against Endothelial Dysfunction” (THE TRUSTEES OF THE UNIVERSITY OF PENNSYLVANIA, priority 2023, published 2024)
“Also recorded” adds a separate entry of the source.

Tests used:
[1] = target: T1, phospholipase A2 (PLA2) activity of peroxiredoxin 6 (Prdx6) (Homo sapiens, UniProt P30041); details: earlier work / WO 2020/037146 A1; cited from earlier work
T1 sequence (P30041 1-224): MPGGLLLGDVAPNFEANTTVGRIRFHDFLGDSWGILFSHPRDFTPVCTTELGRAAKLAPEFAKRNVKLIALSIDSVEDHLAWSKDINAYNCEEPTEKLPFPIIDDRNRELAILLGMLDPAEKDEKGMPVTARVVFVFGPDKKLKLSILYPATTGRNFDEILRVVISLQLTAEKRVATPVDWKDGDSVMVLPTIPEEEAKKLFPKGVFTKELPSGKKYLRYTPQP

ICAM-1 = ICAM-1 immunostaining in HPMVEC exposed to COVID-19 serum; type: cell-based, human; details: HPMVEC pre-treated 3 hrs with PIP-2 in liposomes (10 nM), then COVID-19 serum; anti-ICAM immunostaining
Method: Primary cultures of Human Pulmonary Microvascular Endothelial Cells (HPMVEC) were grown in a T-25 culture dish and routinely maintained in Dulbecco's Modified Eagle Medium (DMEM) supplemented with 10% fetal bovine serum (FBS), 1× glutamax, 1× antibiotics, and endothelial cell growth supplement (Millipore Upstate). Cells were grown and maintained in 5% CO2 at 37° C. Once grown to the appropriate density, cells were then split and grown on coverslips in 35 mm petri dishes. Cells were then treated either with medium supplemented with 10% serum from healthy individuals or COVID-19 patients at admission to ICU and then monitored for ROS production and ICAM-1 induction as described below.
HPMVEC were incubated for one hour in the incubator at 37° C. and 5% CO2 with medium supplemented with 10% serum either from a healthy individual or from patients suffering from COVID-19. The serum replaced the FBS which was otherwise used as a supplement in DMEM. Post incubation, cells were either fixed for ICAM-1 immuno-staining or the cells were stained for ROS measurement as described below. Serum from one healthy individual and seven COVID-19 patients were used in this study.
HPMVEC were incubated for three hours in the incubator at 37° C. and 5% CO2 with medium supplemented with either liposomes alone or PIP-2 in liposomes (concentration 10 nM) without 10% FBS. […]

[2] = tested on: Human Pulmonary Microvascular Endothelial Cells (HPMVEC); type: cell-based; details: HPMVEC pre-treated 3 hrs with PIP-2 in liposomes (10 nM), then COVID-19 serum 1 hr; CellROX fluorescence
[3] = tested on: NLRP3 subunit of the inflammasome; assay: NLRP3 immunostaining in cells exposed to COVID-19 serum; type: cell-based, human; details: cells pre-treated 3 hrs with PIP-2, then COVID-19 serum 1 hr; anti-NLRP3 immunostaining
Method: (§1) Cells were pre-treated for 3 hrs with PIP-2 and then with COVID-19 serum/normal serum for an hour. Cells were then fixed and NLRP3/caspase-1 were monitored by immunostaining with anti-NLRP3 or activated caspase-1 antibody. FIG. 4A: NLRP3 immunostaining. FIG. 4B: Quantification of the fluorescent signal using Metamorph imaging software *p<0.001. FIG. 4C: Caspase-1 immunostaining. FIG. 4D: Quantification of the fluorescent signal using Metamorph imaging software *p<0.05.
(§2) HPMVEC were incubated for three hours in the incubator at 37° C. and 5% CO2 with medium supplemented with either liposomes alone or PIP-2 in liposomes (concentration 10 nM) without 10% FBS. After 3 hours of incubation, cells were either treated with serum of a healthy individual or COVID-19 patients at admission to ICU along with either liposomes alone or PIP-2 in liposomes together for one hour and three hours for ROS measurement and ICAM-1 induction respectively.

caspase-1 = assay: Activated caspase-1 immunostaining in cells exposed to COVID-19 serum; type: cell-based, human; details: cells pre-treated 3 hrs with PIP-2, then COVID-19 serum 1 hr; activated caspase-1 antibody immunostaining
Method: as §1, §2

lung oxidative injury = details: earlier work; cited from earlier work

Row | Compound | inhibition of PLA2 (aiPLA2) activity of Prdx6 [1] | ICAM-1 expression (endothelial inflammatory phenotype) (ICAM-1) | ROS production (endothelial activation) post COVID-19 serum exposure [2] | NLRP3 expression [3] | caspase 1 expression (caspase-1) | protection against lung oxidative injury (lung oxidative injury)
1 | LHDFRHQIL (in liposomes) [PIP-2, tested in liposomes] | specific for inhibition of aiPLA2 activity | prevented the appearance of an endothelial inflammatory phenotype; also recorded: significantly reduced; also recorded: decreased; also recorded: significantly reverse | protected the endothelium from activation; also recorded: significant decrease; also recorded: decreased; also recorded: able to reduce the endothelial activation; also recorded: significantly reverse | significantly reduced; also recorded: decreased | significantly reduced; also recorded: decreased | –
2 | CCCCCCCCCCCCCCCCOCC(COCC(F)(F)F)OP(=O)(O)OC (stereo not drawn) [MJ33] | – | – | – | – | – | able to protect against lung oxidative injury
